We go through 6 compounds from patent publication US8309557B2, “Pyrimidin-4-ylpropanedinitrile derivatives, processes for their preparation and their use as herbicides and plant growth regulators” (Bayer Intellectual Property GmbH, priority 2009, dated 2012).

Common to all, as to assay type: in vivo
One assay concerns Matricaria inodora. Put plainly: Herbicidal effect post-emergence, MATIN. The method, then: (§1) Seeds of mono- and dicotyledonous weed plants and crop plants are planted in wood-fiber pots in sandy loam, covered with earth and grown in a greenhouse under good growth conditions. 2 to 3 weeks after sowing, the test plants are treated in the single-leaf stage. The compounds according to the invention, formulated in the form of wettable powders (WP) or as emulsion concentrates (EC), are then sprayed onto the green plant parts as aqueous suspension or emulsion using an application rate of 600 to 800 l of water/ha (converted) with the addition of 0.2% by weight of wetting agent. After the test plants had been in the greenhouse for ca. 3 weeks under optimum growth conditions, the effect of the preparations is scored visually in comparison with untreated controls (herbicidal effect in percent (%): 100% effect=plants have died off, 0% effect=as control plants).

The subject of another assay is Ipomoea purpurea. Nature of the assay: Herbicidal effect post-emergence, PHBPU. The method, then: as §1
Assay [1] relates to Amaranthus retroflexus. Put plainly: Herbicidal effect post-emergence, AMARE. The method, then: as §1
Assay [2] concerns Veronica persica. Nature of the assay: Herbicidal effect post-emergence, VERPE. The procedure:
as §1

The subject of assay [3] is Abutilon theophrasti. Nature of the assay: Herbicidal effect post-emergence, ABUTH. The procedure: as §1
Another assay concerns Stellaria media. Put plainly: Herbicidal effect post-emergence, STEME. The procedure: as §1
In assay [4] the test system is Polygonum (Fallopia) convolvulus. Nature of the assay: Herbicidal effect post-emergence, POLCO. The procedure:
as §1

For assay [5], the system named is Tripleurospermum inodorum. Put plainly: Herbicidal effect pre-emergence, MATIN. Particulars: 320 g/hectare, visual grading after 3 weeks vs untreated controls. From the text: (§2) Seeds of mono- and dicotyledonous weed plants and crop plants are planted in wood-fiber pots in sandy loam and covered with earth. The compounds according to the invention, formulated in the form of wettable powders (WP) or as emulsion concentrates (EC), are then applied to the surface of the covering earth as aqueous suspension or emulsion at an application rate corresponding to 320 g/hectare at an application rate of 600 to 800 l of water/ha (converted) with the addition of 0.2% wetting agent.
(§3) Following treatment, the pots are placed in a greenhouse and kept under good growth conditions for the test plants. The visual grading of the damage to the test plants is carried out after a test time of 3 weeks in comparison to untreated controls (herbicidal effect in percent (%): 100% effect=plants have died off, 0% effect=as control plants).

Assay [6] deals with Viola tricolor. Put plainly: Herbicidal effect pre-emergence, VIOTR. Particulars: 320 g/hectare, visual grading after 3 weeks vs untreated controls.
Excerpt: as §2, §3

Assay [7] deals with Abutilon theophrasti. Nature of the assay: Herbicidal effect pre-emergence, ABUTH. As to conditions: 320 g/hectare, visual grading after 3 weeks vs untreated controls.
Excerpt: as §2, §3

For assay [8], the system named is Veronica persica. Put plainly: Herbicidal effect pre-emergence, VERPE. As to conditions: 320 g/hectare, visual grading after 3 weeks vs untreated controls.
Excerpt: as §2, §3

For another assay, the system named is Echinochloa crus-galli. Nature of the assay: Herbicidal effect post-emergence, ECHCG. The method, then: as §1
Assay [9] deals with Amaranthus retroflexus. Put plainly: Herbicidal effect pre-emergence, AMARE. As to conditions: 320 g/hectare, visual grading after 3 weeks vs untreated controls.
Excerpt: as §2, §3

Assay [10] has as its system Setaria viridis. Nature of the assay: Herbicidal effect pre-emergence, SETVI. As to conditions: 320 g/hectare, visual grading after 3 weeks vs untreated controls.
Excerpt: as §2, §3

The test system of assay [11] is Setaria viridis. Nature of the assay: Herbicidal effect post-emergence, SETVI. The procedure: as §1
Assay [12] relates to Viola tricolor. Put plainly: Herbicidal effect post-emergence, VIOTR. The method, then: as §1

For the compound `CC(C)c1nc(N)c(Cl)c(C(C#N)C#N)n1` [compound 265], the “Effect in % in respect of stated plant, MATIN” value (“Effect in % … MATIN” for short) in the assay on Matricaria inodora is 90%. In addition, the “Effect in % in respect of stated plant, PHBPU” value in the assay on Ipomoea purpurea was found to be 100%. For the same compound, the “Effect in % in respect of stated plant, AMARE” value (shortened to “Effect in % … AMARE”) with Amaranthus retroflexus [1] came out at 100%. For the same compound, the “Effect in % in respect of stated plant, VERPE” value (shortened to “Effect in % … VERPE”) in the assay with Veronica persica [2] is on record as 90%. For the same compound, in the assay on Abutilon theophrasti [3], the “Effect in % in respect of stated plant, ABUTH” value (shortened to “Effect in % … ABUTH”) was 80%. Also, in the assay with Stellaria media, the “Effect in % in respect of stated plant, STEME” value (shortened to “Effect in % … STEME”) is listed as 90%. For the same compound, the “Effect in % in respect of stated plant, POLCO” value (from here on “Effect in % … POLCO”) in assay [4] stood at 90%.

Consider `CNc1nc(-c2ccc(Cl)cc2)nc(C(C#N)C#N)c1Cl` [Ex. No. 41, [5-Chloro-2-(4-chlorophenyl)-6-(methylamino)pyrimidin-4-yl]propanedinitrile], for which the “Effect in % … MATIN” value in assay [5] was 80%. In addition, the “Effect in % in respect of stated plant, VIOTR” value (from here on “Effect in % … VIOTR”) with Viola tricolor [6] is 100%.

As to `Cc1ccc(-c2nc(N)c(Cl)c(C(C#N)C#N)n2)cc1` [compound 12], the “Effect in % … MATIN” value with Matricaria inodora was determined as 80%. The “Effect in % … ABUTH” value in the assay on Abutilon theophrasti [7] and with Abutilon theophrasti [3] was 80% each time. The “Effect in % … AMARE” value in the assay on Amaranthus retroflexus [1] came out at 90%; in the assay on Amaranthus retroflexus [9], 100%. The “Effect in % … VERPE” value in the assay with Veronica persica [2] came out at 90%; with Veronica persica [8] it was 100%. Moreover, the “Effect in % in respect of stated plant, ECHCG” value (“Effect in % … ECHCG” for short) in the assay with Echinochloa crus-galli is reported as 80%. Moreover, the “Effect in % … POLCO” value in assay [4] is given as 80%.

Take `C[N+](C)(C)C.N#C[C-](C#N)c1nc(-c2ccc(Cl)cc2)nc(N)c1Cl` [Compound 312]: in the assay with Matricaria inodora, the “Effect in % … MATIN” value amounted to 90%. In addition, the “Effect in % in respect of stated plant, SETVI” value (“Effect in % … SETVI” below) with Setaria viridis [10] and in the assay with Setaria viridis [11] was 90% each time. Moreover, the “Effect in % … AMARE” value amounted to 90% with Amaranthus retroflexus [1] and 95% in the assay on Amaranthus retroflexus [9]. Besides, the “Effect in % … VERPE” value with Veronica persica [2] turned out to be 95%; with Veronica persica [8], 100%. Further, in the assay on Echinochloa crus-galli, the “Effect in % … ECHCG” value came out at 85%. Further, the “Effect in % … ABUTH” value in the assay with Abutilon theophrasti [3] is listed as 85%. Also, the results for the “Effect in % … VIOTR” value with Viola tricolor [6] and with Viola tricolor [12] were 100% and 80%, respectively. For the same compound, in the assay with Stellaria media, the “Effect in % … STEME” value was 80%. In [4], the “Effect in % … POLCO” value was found to be 90%.

`N#C[C-](C#N)c1nc(-c2ccc(Cl)cc2)nc(N)c1Cl.[Na+]` [Ex. No. 304, Sodium [6-amino-5-chloro-2-(4-chlorophenyl)pyrimidin-4-yl](dicyano)methanide]: the “Effect in % … MATIN” value turned out to be 80% in [5] and 90% in the assay with Matricaria inodora. In the assay with Setaria viridis [10], the “Effect in % … SETVI” value was 80%. Further, the entries for the “Effect in % … AMARE” value in the assay with Amaranthus retroflexus [1] and in the assay on Amaranthus retroflexus [9] were 100% and 90%, respectively. The “Effect in % … VERPE” value with Veronica persica [8] is on record as 100%. Besides, the “Effect in % … ABUTH” value with Abutilon theophrasti [3] is recorded as 80%. Further, the “Effect in % … STEME” value in the assay with Stellaria media is 80%. Moreover, the “Effect in % … VIOTR” value in the assay with Viola tricolor [12] was 80%. Moreover, the “Effect in % … POLCO” value in assay [4] turned out to be 80%.

Consider `CN(C)C.N#CC(C#N)c1nc(-c2ccc(Cl)cc2)nc(N)c1Cl` [Compound 311], for which the “Effect in % … MATIN” value (in assay [5]; with Matricaria inodora) was 90% in each case. Also, the “Effect in % … ABUTH” value in the assay with Abutilon theophrasti [7] was 80%; with Abutilon theophrasti [3] it was 90%. Also, the results for the “Effect in % … SETVI” value with Setaria viridis [10] and in the assay on Setaria viridis [11] were 90% and 80%, respectively. The “Effect in % … AMARE” value with Amaranthus retroflexus [1] was determined as 90%; with Amaranthus retroflexus [9] it was 100%. Further, the “Effect in % … VERPE” value with Veronica persica [2] came out at 90%; in the assay with Veronica persica [8] it was 100%. For the same compound, the “Effect in % … ECHCG” value in the assay with Echinochloa crus-galli is listed as 90%. For the same compound, the “Effect in % … VIOTR” value in the assay on Viola tricolor [6] is 100%; with Viola tricolor [12], 80%. In the assay with Stellaria media, the “Effect in % … STEME” value is 80%. The “Effect in % … POLCO” value in assay [4] was found to be 90%.
